Among the test systems are NCI/ADR-RES ovarian; SNB-75 CNS; OVCAR-5 ovarian; SK-OV-3 ovarian; A549 NSCLC; IGROV1 ovarian; SNB-19 CNS; U251 CNS; OVCAR-8 ovarian; NCI-H522 lung.
Holding throughout (test): growth of human tumour cells (NCI), 48 h

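Growth conditions: 96-well plates. Treatment: test compound, 48 hours, 5 concentrations. Analysis: linear interpolation between bracketing concentrations; unreached endpoints set to highest concentration. At the GI50, growth is halved. The concentration for full growth arrest is given as TGI.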

As for `COc1cc(/C=C2\C(=O)Nc3ccc(Br)cc32)cc(OC)c1OC`, the GI50 with NCI/ADR-RES ovarian was 4.01 µM; in the test with SNB-75 CNS, 4.01 µM; in the test on OVCAR-5 ovarian, 30.6 µM; with SK-OV-3 ovarian it was 24 µM; in the test with A549 NSCLC, 10.3 µM; in the test on IGROV1 ovarian, 2.29 µM. The GI50 is 29.8 µM in the test on SNB-19 CNS, 7.19 µM with U251 CNS, 34.3 µM in the test with OVCAR-8 ovarian and 3.29 µM with NCI-H522 lung. For the same compound, the TGI was 29.4 µM with NCI/ADR-RES ovarian; 14.5 µM in the test on SNB-75 CNS; more than 100 µM in the test with OVCAR-5 ovarian; more than 56.1 µM in the test with SK-OV-3 ovarian; more than 100 µM in the test with A549 NSCLC; 17 µM in the test on IGROV1 ovarian. In addition, the TGI in the test on SNB-19 CNS was more than 100 µM; in the test on U251 CNS it was 30 µM; in the test on OVCAR-8 ovarian, more than 100 µM; in the test on NCI-H522 lung, more than 50.9 µM.

Take `N=C(N)SCC(=O)O`: the TGI in the test with NCI/ADR-RES ovarian, with SNB-75 CNS, in the test with OVCAR-5 ovarian, in the test with SK-OV-3 ovarian, in the test with A549 NSCLC and in the test on IGROV1 ovarian was more than 100 µM in each case. Also, the TGI with SNB-19 CNS, in the test on U251 CNS, in the test on OVCAR-8 ovarian and with NCI-H522 lung was more than 100 µM throughout.

As for `CCOC(=O)C(=Cc1c(-c2ccccc2)[nH]c2ccccc12)C(=O)OCC`, the GI50 was 2.84 µM in the test with NCI/ADR-RES ovarian; 6.55 µM with SNB-75 CNS; 13.4 µM in the test on OVCAR-5 ovarian; 13.6 µM in the test on SK-OV-3 ovarian; 6.34 µM in the test with A549 NSCLC; 5.56 µM with IGROV1 ovarian. Moreover, the GI50 was 21.6 µM in the test with SNB-19 CNS, 4.91 µM in the test with U251 CNS, 4.08 µM in the test on OVCAR-8 ovarian and 3.32 µM with NCI-H522 lung. Also, the TGI worked out at 14.6 µM in the test with NCI/ADR-RES ovarian; 28.4 µM in the test on SNB-75 CNS; 41.8 µM with OVCAR-5 ovarian; 49.2 µM in the test with SK-OV-3 ovarian; 24.5 µM with A549 NSCLC; 23.7 µM in the test with IGROV1 ovarian. Besides, the TGI with SNB-19 CNS was more than 64.3 µM; in the test on U251 CNS, 35.6 µM; with OVCAR-8 ovarian it was 17.9 µM; with NCI-H522 lung it was 11.8 µM.

For the compound `CC(C)c1ccc2c(c1)c(SC(C)(C)C)c(CC(C)(C)C(=O)O)n2Cc1ccc(Cl)cc1`, the GI50 in the test with NCI/ADR-RES ovarian was 10.1 µM; in the test on SNB-75 CNS, 9.76 µM; in the test with OVCAR-5 ovarian, 14.9 µM; in the test on SK-OV-3 ovarian, 14.1 µM; with A549 NSCLC it was 3.27 µM; in the test with IGROV1 ovarian, 10.5 µM. For the same compound, the GI50 in the test with SNB-19 CNS is 8.45 µM; in the test with U251 CNS, 6.8 µM; with OVCAR-8 ovarian, 6.81 µM; in the test on NCI-H522 lung it was 6.07 µM. In addition, the TGI with NCI/ADR-RES ovarian came to 26.7 µM; with SNB-75 CNS it was 22.3 µM; with OVCAR-5 ovarian it was 29.2 µM; with SK-OV-3 ovarian, 29.8 µM; in the test with A549 NSCLC, 14.1 µM; in the test on IGROV1 ovarian, 23.5 µM. Further, the TGI was found to be 22.7 µM in the test on SNB-19 CNS, 19.4 µM in the test with U251 CNS, 19.6 µM in the test with OVCAR-8 ovarian and 18.1 µM in the test with NCI-H522 lung.

As to `COc1ccc(-c2nn3ncccc3c2-c2ccnc(Nc3cccc(C(F)(F)F)c3)n2)cc1`, the GI50 in the test with NCI/ADR-RES ovarian is 6.16 µM; with SNB-75 CNS, more than 16.3 µM; in the test on OVCAR-5 ovarian it was 6.7 µM; in the test with SK-OV-3 ovarian it was 7.76 µM; in the test with A549 NSCLC, 9.38 µM; in the test on IGROV1 ovarian, 4.39 µM. Further, the GI50 in the test on SNB-19 CNS is 12.5 µM; in the test on U251 CNS, 11.6 µM; in the test with OVCAR-8 ovarian it was 8.74 µM; with NCI-H522 lung, 6.39 µM. Besides, the TGI is more than 25 µM in the test on NCI/ADR-RES ovarian; more than 25 µM with SNB-75 CNS; more than 25 µM with OVCAR-5 ovarian; more than 25 µM in the test with SK-OV-3 ovarian; more than 25 µM with A549 NSCLC; more than 20.2 µM in the test with IGROV1 ovarian. In addition, the TGI was more than 25 µM in the test on SNB-19 CNS, more than 25 µM with U251 CNS, more than 25 µM with OVCAR-8 ovarian and more than 21.7 µM with NCI-H522 lung.

Regarding `COc1ccc2c(c1)c(-c1cc(-c3cn(C)c4ccc(OC)cc34)[nH]n1)cn2C`, the GI50 in the test on NCI/ADR-RES ovarian, with SNB-75 CNS, in the test on OVCAR-5 ovarian, in the test on SK-OV-3 ovarian, with A549 NSCLC and in the test on IGROV1 ovarian was more than 100 µM throughout. In addition, the GI50 with SNB-19 CNS, with U251 CNS, with OVCAR-8 ovarian and in the test on NCI-H522 lung was more than 100 µM each time. The TGI in the test with NCI/ADR-RES ovarian, in the test with SNB-75 CNS, in the test on OVCAR-5 ovarian, in the test on SK-OV-3 ovarian, with A549 NSCLC and in the test on IGROV1 ovarian was more than 100 µM in each case. Besides, the TGI in the test on SNB-19 CNS, with U251 CNS, in the test with OVCAR-8 ovarian and in the test on NCI-H522 lung was more than 100 µM each time.

The values are drawn from PubChem BioAssay (NCI).
